Source: patent US10376520B2, “Methods for the treatment of cardiovascular disorders” (Galapagos NV, priority 2015, dated 2019)

Tested on: RA patients
Test: [HDL] determination, Study 2 (RA patients, monotherapy)
Assay type: in vivo, human
Conditions: for [HDL] Mean percentage CFB - 12 weeks results / [HDL] Median percentage CFB - 12 weeks results: 50 mg q.d.
Excerpt: Randomized, double-blind, placebo-controlled, multicenter, phase IIb dose finding study of Compound 1 (dosed as a [Compound 1:HCl:3H2O]) administered for 24 weeks as monotherapy to subjects with moderately to severely active rheumatoid arthritis who have an inadequate response to methotrexate alone
Double-blind, placebo-controlled, monotherapy study in subjects with moderately to severely active RA who have an inadequate response to methotrexate (MTX) (oral or parenteral).
280 subjects randomized to one of 3 doses of Compound 1 (dosed as a [Compound 1:HCl:3H2O]) or to placebo, given once daily (q.d.).
Twelve weeks of treatment with Compound 1 (dosed as a [Compound 1:HCl:3H2O]) at 50 mg, 100 mg, or 200 mg q.d.; or placebo. At Week 12, all subjects on placebo and the subjects on the 50 mg dose who have not achieved 20% improvement in swollen joint count (SJC66) and tender joint count (TJC68) will be assigned to 100 mg q.d. in a blinded fashion and will continue treatment until Week 24. Subjects in the other groups will maintain their randomized treatment until Week 24.
This assay relies on a homogeneous enzymatic colorimetric test. In the presence of magnesium ions, dextran sulfate selectively forms water-soluble complexes with LDL, VLDL and chylomicrons which are resistant to PEG-modified enzymes.
The cholesterol concentration of [HDL]-cholesterol is determined enzymatically by cholesterol esterase and cholesterol oxidase coupled with PEG to the amino groups (approx. 40%).
In the presence of peroxidase, the hydrogen peroxide generated reacts with 4-amino-antipyrine and Sodium N-(2-hydroxy-3-sulfopropyl)-3,5-dimethoxyaniline (HSDA) to form a purple-blue dye. The color intensity of this dye is directly proportional to the cholesterol concentration and is measured photometrically.
Human serum and plasma samples [HDL] determination was done on a Roche/Hitachi Cobas c 701/702 system which automatically calculate the analyte concentration of each sample. Samples containing precipitates are centrifuged before performing the assay.

[1] = 50 mg q.d. non responders switching to 100 mg q.d. at week 12 (N = 15), week 1
[2] = 50 mg q.d. non responders switching to 100 mg q.d. at week 12 (N = 15), week 2
[3] = 50 mg q.d. non responders switching to 100 mg q.d. at week 12 (N = 15), week 4
[4] = 50 mg q.d. non responders switching to 100 mg q.d. at week 12 (N = 15), week 8
[5] = 50 mg q.d. non responders switching to 100 mg q.d. at week 12 (N = 15), week 12
[6] = 50 mg q.d. non responders switching to 100 mg q.d. at week 12 (N = 15), week 16
[7] = 50 mg q.d. non responders switching to 100 mg q.d. at week 12 (N = 15), week 20
[8] = 50 mg q.d. non responders switching to 100 mg q.d. at week 12 (N = 15), week 24
[9] = 50 mg q.d. non responders switching to 100 mg q.d. at week 12, week 1
[10] = 50 mg q.d. non responders switching to 100 mg q.d. at week 12, week 2
[11] = 50 mg q.d. non responders switching to 100 mg q.d. at week 12, week 4
[12] = 50 mg q.d. responders (N = 57), week 1
[13] = 50 mg q.d. responders (N = 57), week 2
[14] = 50 mg q.d. responders (N = 57), week 4
[15] = 50 mg q.d. responders (N = 57), week 8
[16] = 50 mg q.d. responders (N = 57), week 12
[17] = 50 mg q.d. responders (N = 57), week 16
[18] = 50 mg q.d. responders (N = 57), week 20
[19] = 50 mg q.d. responders (N = 57), week 24

## O=C(Nc1nc2cccc(-c3ccc(CN4CCS(=O)(=O)CC4)cc3)n2n1)C1CC1 [Compound 1, cyclopropanecarboxylic acid {5-[4-(1,1-dioxo-thiomorpholin-4-ylmethyl)-phenyl]-[1,2,4]triazolo[1,5-a]pyridin-2yl}-amide]
50 mg q.d. (N = 72), week 1
  [HDL] Mean CFB: 0.033 mmol/L
  [HDL] Median CFB: 0.050 mmol/L
50 mg q.d. (N = 72), week 2
  [HDL] Mean CFB: 0.055 mmol/L
  [HDL] Median CFB: 0.000 mmol/L
50 mg q.d. (N = 72), week 4
  [HDL] Mean CFB: 0.102 mmol/L
  [HDL] Median CFB: 0.100 mmol/L
50 mg q.d. (N = 72), week 8
  [HDL] Mean CFB: 0.120 mmol/L
  [HDL] Median CFB: 0.110 mmol/L
50 mg q.d. (N = 72), week 12
  [HDL] Mean CFB: 0.078 mmol/L
  [HDL] Median CFB: 0.065 mmol/L
[1]
  [HDL] Mean CFB - 24 weeks results: 0.08 mmol/L
  [HDL] Median CFB - 24 weeks results: 0.05 mmol/L
[2]
  [HDL] Mean CFB - 24 weeks results: 0.05 mmol/L
  [HDL] Median CFB - 24 weeks results: 0.04 mmol/L
[3]
  [HDL] Mean CFB - 24 weeks results: 0.14 mmol/L
  [HDL] Median CFB - 24 weeks results: 0.11 mmol/L
[4]
  [HDL] Mean CFB - 24 weeks results: 0.09 mmol/L
  [HDL] Median CFB - 24 weeks results: 0.10 mmol/L
[5]
  [HDL] Mean CFB - 24 weeks results: 0.15 mmol/L
  [HDL] Median CFB - 24 weeks results: 0.14 mmol/L
[6]
  [HDL] Mean CFB - 24 weeks results: 0.20 mmol/L
  [HDL] Median CFB - 24 weeks results: 0.21 mmol/L
[7]
  [HDL] Mean CFB - 24 weeks results: 0.21 mmol/L
  [HDL] Median CFB - 24 weeks results: 0.25 mmol/L
[8]
  [HDL] Mean CFB - 24 weeks results: 0.30 mmol/L
  [HDL] Median CFB - 24 weeks results: 0.31 mmol/L
[9]
  [HDL] Mean percentage CFB - 24 weeks results: 5.25%
  [HDL] Median percentage CFB - 24 weeks results: 3.68%
[10]
  [HDL] Mean percentage CFB - 24 weeks results: 4.69%
  [HDL] Median percentage CFB - 24 weeks results: 4.17%
[11]
  [HDL] Mean percentage CFB - 24 weeks results: 10.56%
  [HDL] Median percentage CFB - 24 weeks results: 10.14%
50 mg q.d. non responders switching to 100 mg q.d. at week 12, week 8
  [HDL] Mean percentage CFB - 24 weeks results: 5.96%
50 mg q.d. non responders switching to 100 mg q.d. at week 12, week 12
  [HDL] Median percentage CFB - 24 weeks results: 7.95%
50 mg q.d. non responders switching to 100 mg q.d. at week 12, week 16
  [HDL] Median percentage CFB - 24 weeks results: 14.34%
50 mg q.d. non responders switching to 100 mg q.d. at week 12, week 20
  [HDL] Median percentage CFB - 24 weeks results: 16.22%
50 mg q.d. non responders switching to 100 mg q.d. at week 12, week 24
  [HDL] Median percentage CFB - 24 weeks results: 19.84%
[12]
  [HDL] Mean CFB - 24 weeks results: 0.02 mmol/L
  [HDL] Median CFB - 24 weeks results: 0.04 mmol/L
[13]
  [HDL] Mean CFB - 24 weeks results: 0.05 mmol/L
  [HDL] Median CFB - 24 weeks results: 0.00 mmol/L
[14]
  [HDL] Mean CFB - 24 weeks results: 0.09 mmol/L
  [HDL] Median CFB - 24 weeks results: 0.10 mmol/L
[15]
  [HDL] Mean CFB - 24 weeks results: 0.13 mmol/L
  [HDL] Median CFB - 24 weeks results: 0.14 mmol/L
[16]
  [HDL] Mean CFB - 24 weeks results: 0.06 mmol/L
  [HDL] Median CFB - 24 weeks results: 0.05 mmol/L
[17]
  [HDL] Mean CFB - 24 weeks results: 0.08 mmol/L
  [HDL] Median CFB - 24 weeks results: 0.03 mmol/L
[18]
  [HDL] Mean CFB - 24 weeks results: 0.11 mmol/L
  [HDL] Median CFB - 24 weeks results: 0.08 mmol/L
[19]
  [HDL] Mean CFB - 24 weeks results: 0.17 mmol/L
  [HDL] Median CFB - 24 weeks results: 0.10 mmol/L
50 mg q.d. responders, week 1
  [HDL] Mean percentage CFB - 24 weeks results: 1.48%
  [HDL] Median percentage CFB - 24 weeks results: 2.78%
50 mg q.d. responders, week 2
  [HDL] Mean percentage CFB - 24 weeks results: 4.14%
50 mg q.d. responders, week 4
  [HDL] Mean percentage CFB - 24 weeks results: 7.26%
  [HDL] Median percentage CFB - 24 weeks results: 8.30%
50 mg q.d. responders, week 8
  [HDL] Mean percentage CFB - 24 weeks results: 9.33%
  [HDL] Median percentage CFB - 24 weeks results: 8.81%
50 mg q.d. responders, week 12
  [HDL] Mean percentage CFB - 24 weeks results: 4.45%
  [HDL] Median percentage CFB - 24 weeks results: 4.00%
50 mg q.d. responders, week 16
  [HDL] Mean percentage CFB - 24 weeks results: 6.26%
  [HDL] Median percentage CFB - 24 weeks results: 2.82%
50 mg q.d. responders, week 20
  [HDL] Mean percentage CFB - 24 weeks results: 7.61%
  [HDL] Median percentage CFB - 24 weeks results: 5.63%
50 mg q.d. responders, week 24
  [HDL] Mean percentage CFB - 24 weeks results: 11.90%
Week 1
  [HDL] Mean percentage CFB - 12 weeks results: 2.27%
  [HDL] Median percentage CFB - 12 weeks results: 3.23%
Week 2
  [HDL] Mean percentage CFB - 12 weeks results: 4.26%
  [HDL] Median percentage CFB - 12 weeks results: 0.00%
Week 4
  [HDL] Mean percentage CFB - 12 weeks results: 7.96%
  [HDL] Median percentage CFB - 12 weeks results: 8.70%
Week 8
  [HDL] Mean percentage CFB - 12 weeks results: 8.60%
  [HDL] Median percentage CFB - 12 weeks results: 7.00%
Week 12
  [HDL] Mean percentage CFB - 12 weeks results: 5.77%
  [HDL] Median percentage CFB - 12 weeks results: 4.67%
100 mg q.d. (N = 70), week 1
  [HDL] Mean CFB: 0.085 mmol/L
  [HDL] Mean CFB - 24 weeks results: 0.09 mmol/L
  [HDL] Median CFB: 0.050 mmol/L
  [HDL] Median CFB - 24 weeks results: 0.05 mmol/L
100 mg q.d. (N = 70), week 2
  [HDL] Mean CFB: 0.131 mmol/L
  [HDL] Mean CFB - 24 weeks results: 0.13 mmol/L
  [HDL] Median CFB: 0.100 mmol/L
  [HDL] Median CFB - 24 weeks results: 0.10 mmol/L
100 mg q.d. (N = 70), week 4
  [HDL] Mean CFB: 0.194 mmol/L
  [HDL] Mean CFB - 24 weeks results: 0.19 mmol/L
  [HDL] Median CFB: 0.175 mmol/L
  [HDL] Median CFB - 24 weeks results: 0.18 mmol/L
100 mg q.d. (N = 70), week 8
  [HDL] Mean CFB: 0.171 mmol/L
